Data published in the NIST ThermoML archive (doi:10.1016/j.tca.2012.01.013).

Columns and labels:
[1] = 101 kPa, Liquid, Vibrating tube method
[2] = refractive index (Na D-line) (dimensionless); conditions: 101.33 kPa, Liquid, Standard Abbe refractometry
[3] = xn = mol fraction of the nth substance listed; conditions: 101 kPa, Liquid, Vibrating tube method, x2 = 0
[4] = refractive index (Na D-line) (dimensionless); xn = mol fraction of the nth substance listed; conditions: 101 kPa, Liquid, Standard Abbe refractometry, x2 = 0

CCC(C)O (stereo unspecified) [butan-2-ol]
Conditions	mass density, [1] [kg/m3]	refractive index, [2]
288.15 K	810.689	1.39951
293.15 K	806.646	1.39736
298.15 K	802.528	1.39515
303.15 K	798.326	1.39293
308.15 K	794.03	1.39064
313.15 K	789.632	1.38832
318.15 K	785.117	1.38596
323.15 K	780.515	1.38352

CCC(C)O (stereo unspecified) [butan-2-ol] + COC(=O)c1ccccc1C(=O)OC
Conditions	mass density, [3] [kg/m3]	refractive index, [4]
288.15 K	810.689	1.39951
293.15 K	806.646	1.39736
298.15 K	802.528	1.39515
303.15 K	798.326	1.39293
308.15 K	794.03	1.39064
313.15 K	789.632	1.38832
318.15 K	785.117	1.38596
323.15 K	780.515	1.38352

CCCCO [butan-1-ol]
Conditions	mass density, [1] [kg/m3]	refractive index, [2]
288.15 K	813.373	1.40135
293.15 K	809.573	1.39932
298.15 K	805.762	1.3973
303.15 K	801.923	1.39523
308.15 K	798.053	1.39318
313.15 K	794.147	1.3911
318.15 K	790.231	1.38901
323.15 K	786.238	1.38688

CCCCO [butan-1-ol] + COC(=O)c1ccccc1C(=O)OC
Conditions	mass density, [3] [kg/m3]	refractive index, [4]
288.15 K	813.373	1.40135
293.15 K	809.573	1.39932
298.15 K	805.762	1.3973
303.15 K	801.923	1.39523
308.15 K	798.053	1.39318
313.15 K	794.147	1.3911
318.15 K	790.231	1.38901
323.15 K	786.238	1.38688

COC(=O)CCCCC(=O)OC [dimethyl 1,6-hexanedioate]
Conditions	mass density, [1] [kg/m3]	refractive index, [2]
288.15 K	1066.79	1.4305
293.15 K	1061.93	1.42842
298.15 K	1057.06	1.42636
303.15 K	1052.18	1.42429
308.15 K	1047.31	1.42222
313.15 K	1042.43	1.42017
318.15 K	1037.54	1.41819
323.15 K	1032.64	1.41614

COC(=O)c1ccccc1C(=O)OC [dimethyl 1,2-benzenedicarboxylate]
Conditions	mass density, [1] [kg/m3]	refractive index, [2]
288.15 K	1196.26	1.51779
293.15 K	1191.59	1.51565
298.15 K	1186.93	1.51354
303.15 K	1182.28	1.51146
308.15 K	1177.62	1.50943
313.15 K	1172.97	1.50736
318.15 K	1168.32	1.50524
323.15 K	1163.67	1.5032

CCC(C)O (stereo unspecified) [butan-2-ol] + COC(=O)CCCCC(=O)OC
Conditions	mass density, [3] [kg/m3]	refractive index, [4]
288.15 K	810.689	1.39951
293.15 K	806.646	1.39736
298.15 K	802.528	1.39515
303.15 K	798.326	1.39293
308.15 K	794.03	1.39064
313.15 K	789.632	1.38832
318.15 K	785.117	1.38596
323.15 K	780.515	1.38352

CCCCO [butan-1-ol] + COC(=O)CCCCC(=O)OC
Conditions	mass density, [3] [kg/m3]	refractive index, [4]
288.15 K	813.373	1.40135
293.15 K	809.573	1.39932
298.15 K	805.762	1.3973
303.15 K	801.923	1.39523
308.15 K	798.053	1.39318
313.15 K	794.147	1.3911
318.15 K	790.231	1.38901
323.15 K	786.238	1.38688

CCC(C)=O [butanone]
Conditions	mass density, [1] [kg/m3]	refractive index, [2]
288.15 K	810.133	1.38153
293.15 K	804.926	1.37892
298.15 K	799.695	1.37631
303.15 K	794.435	1.37366
308.15 K	789.142	1.37102
313.15 K	783.814	1.36834
318.15 K	778.451	1.36565
323.15 K	773.047	1.36294

CCC(C)=O [butanone] + COC(=O)c1ccccc1C(=O)OC
Conditions	mass density, [3] [kg/m3]	refractive index, [4]
288.15 K	810.133	1.38153
293.15 K	804.926	1.37892
298.15 K	799.695	1.37631
303.15 K	794.435	1.37366
308.15 K	789.142	1.37102
313.15 K	783.814	1.36834
318.15 K	778.451	1.36565
323.15 K	773.047	1.36294

CCC(C)=O [butanone] + COC(=O)CCCCC(=O)OC
Conditions	mass density, [3] [kg/m3]	refractive index, [4]
288.15 K	810.133	1.38153
293.15 K	804.926	1.37892
298.15 K	799.695	1.37631
303.15 K	794.435	1.37366
308.15 K	789.142	1.37102
313.15 K	783.814	1.36834
318.15 K	778.451	1.36565
323.15 K	773.047	1.36294
